From patent US12227520B2 (priority 2019, dated 2025)
Read-outs that look alike come from different tables or passages of the source.

Assays:
[1] = test system: HIV-1 (IIIB); test: Antiviral assay in MT-4 cells (HIV MT-4 antiviral assay); format: cell-based; settings: Human immunodeficiency virus 1, IIIB, MT4, 120 h, HIV-1 (IIIB) in MT-4 cells, 5 days incubation; read-out: EC50
Procedure, shortened: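 Read-out is CellTiter-Glo chemiluminescence after 5-day culture at 37° C, giving protection of MT-4 cells from HIV-1 IIIB cytopathicity. Compounds tested in 1:3 dilution series in complete RPMI; controls were no drug, mock infection and 5 μM AZT.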

[2] = Cytotoxicity assay in MT-4 cells; format: cell-based, human; settings: human, uninfected MT-4 cells, 5 days incubation; read-out: CC50
Procedure, shortened: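 For cytotoxicity, uninfected MT-4 cells were incubated with compounds 5 days at 37 °C, with 10 μM puromycin marking base cytotoxicity. Parallel plates used HIV-1 IIIB-infected (1:250 stock dilution) or mock cells with 5 μM AZT and no-drug controls. Read-out: CellTiter-Glo chemiluminescence.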

[3] = test system: pLai RLuc reporter virus; test: microbe, parasite or virus in culture; format: cell-based, HIV; settings: Human immunodeficiency virus 1, 72 h
Procedure, shortened: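 Read-out is Renilla luciferase after 72 h at 37 °C in MT-4 cells infected 2 h beforehand with pLai RLuc reporter virus; compounds diluted 1:3.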

[4] = read-out: Antiviral Serum Shift RLuc 50% HS, HS/CCM (RPMI media, 10% FBS, 50% HS, 1% P/S), 72-h incubation
[5] = read-out: Antiviral Serum Shift RLuc CCM, CCM (RPMI media, 10% FBS, 1% P/S), 72-h incubation

SMILES	EC50 [1] [nM]	CC50 at 5 days [2] [nM]	EC50 [3, 4] [nM]	EC50 [3, 5] [nM]
C[C@@]12CCCCN(C1)C(=O)c1c(O)c(=O)c(C(=O)NCc3c(F)cc(F)cc3F)cn12 [Example 59-2, (7R)-12-hydroxy-7-methyl-1,11-dioxo-N-(2,4,6-trifluorobenzyl)-1,4,5,6,7,11-hexahydro-3H-2,7-methanopyrido[1,2-a][1,4]diazonine-10-carboxamide]	2.15	18800	55.2	0.547
O=C(NCc1c(F)cc(F)cc1F)c1cn2c(c(O)c1=O)C(=O)N1CCN(C(F)(F)F)CC2C1 (stereo not shown) [Example 141, 12-hydroxy-1,11-dioxo-N-(2,4,6-trifluorobenzyl)-5-(trifluoromethyl)-1,4,5,6,7,11-hexahydro-3H-2,7-methanopyrido[1,2-a][1,4,7]triazonine-10-carboxamide]	> 100	> 50000	199	29.6
O=C(NCc1c(F)cc(F)cc1F)c1cn2c(c(O)c1=O)C(=O)N1C[C@@H]2CCC[C@@H]1C(F)F [Example 131, (3R, 7S)-3-(difluoromethyl)-12-hydroxy-1,11-dioxo-N-(2,4,6-trifluorobenzyl)-1,4,5,6,7,11-hexahydro-3H-2,7-methanopyrido[1,2-a][1,4]diazonine-10-carboxamide]	1.68	10200	11	0.25
O=C(NCc1c(F)cc(F)cc1F)c1cn2c(c(O)c1=O)C(=O)N1C[C@@H]2CSc2ccccc21 [Example 94, (6R)-1-hydroxy-2,14-dioxo-N-(2,4,6-trifluorobenzyl)-2,6,7,14-tetrahydro-6,13-methanobenzo[b]pyrido[2,1-f][1,4,7]thiadiazonine-3-carboxamide]	1.15	13700	1.73	0.411
O=C(NCc1c(F)cc(F)cc1F)c1cn2c(c(O)c1=O)C(=O)N1C[C@@H]2CCc2c(F)cccc21 [Example 43-1, (12S)-1-fluoro-7-hydroxy-6,8-dioxo-N-(2,4,6-trifluorobenzyl)-6,8,13,14-tetrahydro-12H-5,12-methanobenzo[e]pyrido[1,2-a][1,4]diazonine-9-carboxamide]	41.5	8100	147	4.35
C[C@]1(O)CCCN2C[C@H]1n1cc(C(=O)NCc3ccc(F)cc3F)c(=O)c(O)c1C2=O [Example 14-1, (6S,7R)—N-(2,4-difluorobenzyl)-6,12-dihydroxy-6-methyl-1,11-dioxo-1,4,5,6,7,11-hexahydro-3H-2,7-methanopyrido[1,2-a][1,4]diazonine-10-carboxamide]	3	22200	1.88	0.79
C[C@@]1(F)CCCN2C[C@@H]1n1cc(C(=O)NCc3ccc(F)cc3F)c(=O)c(O)c1C2=O [Example 60-3, (6R, 7S)—N-(2,4-difluorobenzyl)-6-fluoro-12-hydroxy-6-methyl-1,11-dioxo-1,4,5,6,7,11-hexahydro-3H-2,7-methanopyrido[1,2-a][1,4]diazonine-10-carboxamide]	2.23	14800	14.8	0.376
C[C@H]1CC[C@H](C)N2C[C@H]1n1cc(C(=O)NCc3ccc(F)cc3F)c(=O)c(O)c1C2=O [Example 187, (3S,6S,7S)—N-(2,4-difluorobenzyl)-12-hydroxy-3,6-dimethyl-1,11-dioxo-1,4,5,6,7,11-hexahydro-3H-2,7-methanopyrido[1,2-a][1,4]diazonine-10-carboxamide]	1.18	10800	44	0.383
C[C@H]1C=CC[C@H]2CN1C(=O)c1c(O)c(=O)c(C(=O)NCc3ccc(F)cc3F)cn12 [Example 149, (3S,7S)—N-(2,4-difluorobenzyl)-12-hydroxy-3-methyl-1,11-dioxo-1,6,7,11-tetrahydro-3H-2,7-methanopyrido[1,2-a][1,4]diazonine-10-carboxamide]	1.59	10000	2.97	0.255
O=C(NCc1ccc(F)cc1F)c1cn2c(c(O)c1=O)C(=O)N1C[C@H]2CCc2cc(Cl)ccc21 [Example 49-2, (12R)-2-chloro-N-(2,4-difluorobenzyl)-7-hydroxy-6,8-dioxo-6,8,13,14-tetrahydro-12H-5,12-methanobenzo[e]pyrido[1,2-a][1,4]diazonine-9-carboxamide]	2.38	7200	1.11	0.202
O=C(NCc1c(F)cc(F)cc1F)c1cn2c(c(O)c1=O)C(=O)N1CCC[C@H](O)C[C@H]2C1 [Example 82-1, (6S,8S)-6,13-dihydroxy-1,12-dioxo-N-(2,4,6-trifluorobenzyl)-1,3,4,5,6,7,8,12-octahydro-2,8-methanopyrido[1,2-a][1,4]diazecine-11-carboxamide]	20.5	> 50000	5.16	4.5
O=C(NCc1c(F)cc(F)cc1F)c1cn2c(c(O)c1=O)C(=O)N1CCC(F)(F)C[C@H]2C1 [Example 114, (7S)-5,5-difluoro-12-hydroxy-1,11-dioxo-N-(2,4,6-trifluorobenzyl)-1,4,5,6,7,11-hexahydro-3H-2,7-methanopyrido[1,2-a][1,4]diazonine-10-carboxamide]	2.27	30500	1.04	0.717
O=C(NCc1ccc(F)c(Cl)c1F)c1cn2c(c(O)c1=O)C(=O)N1CC2CCc2cc(F)ccc21 (stereo not shown) [Example 68, N-(3-chloro-2,4-difluorobenzyl)-2-fluoro-7-hydroxy-6,8-dioxo-6,8,13,14-tetrahydro-12H-5,12-methanobenzo[e]pyrido[1,2-a][1,4]diazonine-9-carboxamide]	1.2	3580	1.17	0.279
O=C(NCc1ccc(F)c(Cl)c1F)c1cn2c(c(O)c1=O)C(=O)N1CCCC[C@@H]2C1 [Example 35, (7R)—N-(3-chloro-2,4-difluorobenzyl)-12-hydroxy-1,11-dioxo-1,4,5,6,7,11-hexahydro-3H-2,7-methanopyrido[1,2-a][1,4]diazonine-10-carboxamide]	1.5	4960	44.4	0.423
O=C(NCc1ccc(F)cc1F)c1cn2c(c(O)c1=O)C(=O)N1C[C@@H]2CCC[C@@H]1C(F)F [Example 189, (3R,7S)—N-(2,4-difluorobenzyl)-3-(difluoromethyl)-12-hydroxy-1,11-dioxo-1,4,5,6,7,11-hexahydro-3H-2,7-methanopyrido[1,2-a][1,4]diazonine-10-carboxamide]	1.56	12300	6.06	0.411
O=C(NCc1c(F)cc(F)cc1F)c1cn2c(c(O)c1=O)C(=O)N1C[C@@H]3CC[C@@H](C3)[C@@H]2C1 [Example 41-2, (4R,7S,8R)-13-hydroxy-1,12-dioxo-N-(2,4,6-trifluorobenzyl)-1,3,4,5,6,7,8,12-octahydro-2,8:4,7-dimethanopyrido[1,2-a][1,4]diazecine-11-carboxamide]	1.4	14300	0.968	0.26
